Tests used:
[1] = molecular target: T1, 2-acylglycerol O-acyltransferase 2 (Homo sapiens, UniProt Q3SYC2); assay: Inhibition of human MGAT2 by LC/MS assay
[2] = molecular target: T1, 2-acylglycerol O-acyltransferase 2; assay: Inhibition of human MGAT2 by SPA assay

T1 sequence (Q3SYC2 whole entry): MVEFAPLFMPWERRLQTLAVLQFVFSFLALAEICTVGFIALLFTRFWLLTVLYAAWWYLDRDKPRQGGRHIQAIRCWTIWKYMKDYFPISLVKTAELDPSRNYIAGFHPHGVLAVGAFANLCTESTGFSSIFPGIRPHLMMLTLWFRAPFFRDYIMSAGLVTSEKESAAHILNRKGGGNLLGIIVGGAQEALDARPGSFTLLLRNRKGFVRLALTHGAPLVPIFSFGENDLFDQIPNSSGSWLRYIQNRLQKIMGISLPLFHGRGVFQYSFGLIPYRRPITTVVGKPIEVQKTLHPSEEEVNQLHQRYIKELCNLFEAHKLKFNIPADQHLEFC

Row | IC50 [1] [nM] | IC50 [2] [nM] | Structure (SMILES)
1 | 7 | 9 | Cc1ccc(C2=C(C(=O)Nc3ccc(-c4nnn[nH]4)cc3)C(=O)N[C@@](c3ccc(OCCCC(F)(F)F)cc3)(C(F)(F)F)C2)cc1
2 | 2 | 8 | Cc1ccc(C2=C(C(=O)Nc3ccno3)C(=O)N[C@@](c3ccc(OCCCC(F)(F)F)cc3)(C(F)(F)F)C2)cc1

— ChEMBL document CHEMBL2439962, “Fighting Obesity and Metabolic Disorders with MGAT-2 Inhibitors” (ACS Med Chem Lett, 2013)
